Consider six compounds from ChEMBL document CHEMBL3739425, “Exploring cinnamic acid scaffold: development of promising neuroprotective lipophilic antioxidants” (Medchemcomm, 2015).

Data set [1] can be described thus: Antioxidant activity assessed as DPPH radical scavenging activity measured every minute over 45 mins by spectrophotometry. In kind it is physicochemical. Background: DPPH is a stable violet radical that fades when it is reduced.
A short description of data set [2]: Antioxidant activity assessed as ABTS radical scavenging activity by spectrophotometry. In kind it is physicochemical.
Data set [3] in a line: Antioxidant activity assessed as galvinoxyl radical scavenging activity measured over 30 mins by spectrophotometry. In kind it is physicochemical.
Data set [4] in a line: Iron chelation activity of compound assessed as [Fe(ferrozine)3]2+ complex formation by spectrophotometry. It is filed as physicochemical.
For data set [5], the system named is SH-SY5Y. The data set can be described thus: Cytotoxicity against human SH-SY5Y cells at 1 and 10 uM after 24 hrs by MTT assay. In kind it is cell-based. (In general: Formazan colour is commonly taken as a measure of viable cells.)
In data set [6] the test system is SH-SY5Y. The data set can be described thus: Neuroprotective activity in human SH-SY5Y cells assessed as inhibition of 6-OH-DA-induced cytotoxicity at 1 uM compound incubated for 1 hr followed by 24 hrs incubation with 100 uM 6-OH-DA by MTT assay. In kind it is functional, cell-based.
Data set [7] concerns SH-SY5Y. In words: Neuroprotective activity in human SH-SY5Y cells assessed as inhibition of 6-OH-DA-induced cytotoxicity at 10 uM compound incubated for 1 hr followed by 24 hrs incubation with 100 uM 6-OH-DA by MTT assay. In kind it is functional, cell-based.

Activity calls are given as the source filed them. The calls are words filed in the database; no cut-off is given here.

As for `O=C(O)/C=C/C=C/c1ccc(O)c(O)c1` [DEMETHYLENATED PIPERIC ACID], the IC50 in data set [1] worked out at 18.2 µM; in data set [2], 11.1 µM; in data set [3] it was 2.5 µM. The Activity entry is on record as “Active” in data set [4] and “Non-toxic” in the data set on SH-SY5Y [5]. For the same compound, the inhibition entry in the data set on SH-SY5Y [6] and in the data set on SH-SY5Y [7] was “Active” throughout.
`COc1cc(/C=C/C=C/C(=O)O)ccc1O`: the IC50 in data set [1] stood at 42.5 µM; in data set [2], 19.7 µM; in data set [3] it was 4.8 µM. Moreover, the Activity entry with SH-SY5Y [5] was “Non-toxic”. Moreover, the inhibition entry with SH-SY5Y [7] was “Active”.
Turning to `COc1cc(/C=C/C(=O)O)ccc1O` [FERULATE], the IC50 in data set [1] was determined as 49.3 µM; in data set [2], 23.9 µM; in data set [3], 26.5 µM.
On to `COc1ccc(/C=C/C=C/C(=O)O)cc1OC`, for which the IC50 in data set [1] is above 75 µM; in data set [2] it was above 50 µM. Further, in the data set on SH-SY5Y [5], the Activity result is “Non-toxic”. The inhibition entry in the data set on SH-SY5Y [6] and in the data set on SH-SY5Y [7] was “inactive” in each case.
As to `O=C(O)/C=C/c1ccc(O)c(O)c1` [CAFFEIC ACID], the IC50 in data set [1] turned out to be 21.7 µM; in data set [2], 17.5 µM; in data set [3], 27 µM. For the same compound, in data set [4], the result was Active.
As for `Cc1c(C)c2c(c(C)c1O)CCC(C)(C(=O)O)O2` (racemic) [TROLOX], the IC50 came to 30.8 µM in data set [1], 2.8 µM in data set [2] and 3.4 µM in data set [3].

The IC50 is the point on the concentration scale where inhibition reaches its midpoint.
